Each block holds one compound with its values, some of them ahead of it.
Legend:
[1] = RAD B251 clinical trial: total cholesterol levels by IL-1β genotype and treatment group; assay type: in vivo, human; conditions: for LS Mean Total Cholesterol Levels: RAD (1.5 and 3.0 mg/day), last visit; for odds ratio for increase in total blood cholesterol levels to a final concentration ≧240 mg/dL: RAD/NEORAL® regimen
Source text: The RAD B251 study was a randomized, multicenter, double-blind, parallel group study of the efficacy and safety of everolimus (Certican™) (RAD) versus mycophenolate mofetil (MMF) used in combination with cyclosporine (CsA) (NEORAL®) and prednisone. The study consisted of three periods: a Screening period, a Baseline period and a Double-Blind Treatment period. […] Determination of allograft function was by the investigator's judgement and was based upon adequate urine output and evidence of falling creatinine levels. The day of randomization and administration of the first dose of study medication was recorded as Day 1 of the study. […]
(§1) A treatment period of three years followed transplantation. […] Renal biopsies were required at Baseline (may be intra-operative) and at the time of any suspected rejection. Blinded study drug administration ceased at 3 years.
(§2) Male and female patients, 16-65 years of age who are scheduled to undergo primary cadaveric, living unrelated or non-HLA identical related donor kidney transplantation, were allowed to enter the study. Patients who discontinued the study prematurely were not replaced. Each patient had to meet all of the inclusion/exclusion criteria to be eligible for entry into the study.
(The values on the figures, etc. refer to the absolute serum cholesterol levels at the last visit, however during the statistical analysis this value was defined as the dependent variable and the cholesterol level at baseline as the independent variable thus automatically taking into consideration the baseline level).
(§3) A total of 82 unique samples from the RAD B251 clinical trial were genotyped upon their consent to participate in the pharmacogenetic evaluation. This represents about 15% of the total population that participated in the RAD B251 clinical trial. Blood samples from each patient were collected at the individual trial sites and then shipped to Covance (Geneva, Switzerland).
An analysis of covariance model was used for the analysis of the effect of genotype and treatment on cholesterol levels using the 24-month lab_b.sd2 RADB 251 clinical data set. Terms in the model include the final cholesterol level, the initial cholesterol level as the covariant, and the genotype and treatment as the main effectors. The odds ratios, 95% confidence limits, and Chi-square analysis were calculated where applicable. All statistical analyses were performed using the SAS 8.02 software. To correct for multiple testing, the Bonferroni correction method was performed. […]

[2] = RAD B251 clinical trial: LDL cholesterol levels by IL-1β genotype and treatment group; assay type: in vivo, human; conditions: last visit
Source text: (§4) The RAD B251 study was a randomized, multicenter, double-blind, parallel group study of the efficacy and safety of everolimus (Certican™) (RAD) versus mycophenolate mofetil (MMF) used in combination with cyclosporine (CsA) (NEORAL®) and prednisone. The study consisted of three periods: a Screening period, a Baseline period and a Double-Blind Treatment period. Following the Baseline assessments, patients who meet the inclusion/exclusion criteria were randomized into one of the three treatment groups (1:1:1) once it has been ascertained that the allograft is functional and that oral medication can be tolerated (within 48 hours post-transplantation). Determination of allograft function was by the investigator's judgement and was based upon adequate urine output and evidence of falling creatinine levels. The day of randomization and administration of the first dose of study medication was recorded as Day 1 of the study. The three treatment groups are described below: • Dose Level 1: 0.75 mg RAD bid+NEORAL®+prednisone • Dose Level 2: 1.5 mg RAD bid+NEORAL®+prednisone • Comparator 1 g MMF bid+NEORAL®+prednisone Concomitant Therapy Initiation and Maintenance of NEORAL®
as §1, §2
as §3, with “Switzerland). The genomic DNA of each patient was extracted from the blood by Covance using the PUREGENE™ DNA Isolation Kit (D-50K) (Gentra, Minneapolis, Minn.).” for “Switzerland).”
(§5) An analysis of covariance model was used for the analysis of the effect of genotype and treatment on cholesterol levels using the 24-month lab_b.sd2 RADB 251 clinical data set. Terms in the model include the final cholesterol level, the initial cholesterol level as the covariant, and the genotype and treatment as the main effectors. The odds ratios, 95% confidence limits, and Chi-square analysis were calculated where applicable. All statistical analyses were performed using the SAS 8.02 software. To correct for multiple testing, the Bonferroni correction method was performed.

[3] = RAD B251 clinical trial: HDL cholesterol levels by IL-1β genotype and treatment group; assay type: in vivo, human; conditions: last visit
Source text: as §4, with “The three treatment groups are described below: • Dose Level 1: 0.75 mg RAD bid+NEORAL®+prednisone • Dose Level 2: 1.5 mg RAD bid+NEORAL®+prednisone • Comparator 1 g MMF bid+NEORAL®+prednisone Concomitant Therapy Initiation and Maintenance of NEORAL®” left out
as §1, §2
as §3, with “Switzerland). The genomic DNA of each patient was extracted from the blood by Covance using the PUREGENE™ DNA Isolation Kit (D-50K) (Gentra, Minneapolis, Minn.).” for “Switzerland).”
as §5

cholesterol biosynthesis = conditions: See El-Omar et al.; cited from earlier work
[4] = (−31) IL-1β CC genotype, RAD (1.5 and 3.0 mg/day)
[5] = (−31) IL-1β CT genotype, RAD (1.5 and 3.0 mg/day)
[6] = (−31) IL-1β TT genotype, RAD (1.5 and 3.0 mg/day)
[7] = (−511) IL-1β CC genotype, RAD (1.5 and 3.0 mg/day)
[8] = (−511) IL-1β CT genotype, RAD (1.5 and 3.0 mg/day)
[9] = (−511) IL-1β TT genotype, RAD (1.5 and 3.0 mg/day)
[10] = (−31) IL-1β CC genotype, MMF (2 mg/day)
[11] = (−31) IL-1β CT genotype, MMF (2 mg/day)
[12] = (−31) IL-1β TT genotype, MMF (2 mg/day)
[13] = (−511) IL-1β CC genotype, MMF (2 mg/day)
[14] = (−511) IL-1β CT genotype, MMF (2 mg/day)
[15] = (−511) IL-1β TT genotype, MMF (2 mg/day)

LS Mean Total Cholesterol Levels ([1]; (−31) IL-1β CC genotype): 291.1 mg/dL
LS Mean Total Cholesterol Levels ([1]; (−31) IL-1β CT genotype): 240.4 mg/dL
LS Mean Total Cholesterol Levels ([1]; (−31) IL-1β TT genotype): 216.6 mg/dL
LS Mean Total Cholesterol Levels ([1]; (−511) IL-1β CC genotype): 217.3 mg/dL
LS Mean Total Cholesterol Levels ([1]; (−511) IL-1β CT genotype): 242.9 mg/dL
LS Mean Total Cholesterol Levels ([1]; (−511) IL-1β TT genotype): 290.3 mg/dL
odds ratio for increase in total blood cholesterol levels to a final concentration ≧240 mg/dL ([1]; patients with a C at position (-31) in the IL-1β gene promoter (CC-CT vs TT)): 7.23
odds ratio for increase in total blood cholesterol levels to a final concentration ≧240 mg/dL ([1]; patients with a T at position (-511) in the IL-1β gene promoter (CT-TT vs CC)): 5.67
LS Mean LDL Levels [2, 4]: 145.1 mg/dL
LS Mean LDL Levels [2, 5]: 124.1 mg/dL
LS Mean LDL Levels [2, 6]: 112.2 mg/dL
LS Mean LDL Levels [2, 7]: 112.5 mg/dL
LS Mean LDL Levels [2, 8]: 123.6 mg/dL
LS Mean LDL Levels [2, 9]: 144.5 mg/dL
LS Mean HDL levels [3, 4]: 65.1 mg/dL
LS Mean HDL levels [3, 5]: 55 mg/dL
LS Mean HDL levels [3, 6]: 48.4 mg/dL
LS Mean HDL levels [3, 7]: 47.6 mg/dL
LS Mean HDL levels [3, 8]: 54.9 mg/dL
LS Mean HDL levels [3, 9]: 68.4 mg/dL
Compound: CO[C@H]1C[C@@H]2CC[C@@H](C)[C@@](O)(O2)C(=O)C(=O)N2CCCC[C@H]2C(=O)O[C@H]([C@H](C)C[C@@H]2CC[C@@H](OCCO)[C@H](OC)C2)CC(=O)[C@H](C)/C=C(\C)[C@@H](O)[C@@H](OC)C(=O)[C@H](C)C[C@H](C)/C=C/C=C/C=C/1C [RAD, everolimus]

Compound: IL-1β: interleukin-1-beta, cytokine reported to inhibit cholesterol biosynthesis
inhibition of cholesterol biosynthesis (cholesterol biosynthesis): 25%

LS Mean LDL Levels [2, 10]: 143.1 mg/dL
LS Mean LDL Levels [2, 11]: 119.8 mg/dL
LS Mean LDL Levels [2, 12]: 107.8 mg/dL
LS Mean LDL Levels [2, 13]: 113.9 mg/dL
LS Mean LDL Levels [2, 14]: 118.6 mg/dL
LS Mean LDL Levels [2, 15]: 143.7 mg/dL
LS Mean HDL levels [3, 10]: 50.4 mg/dL
LS Mean HDL levels [3, 11]: 56.8 mg/dL
LS Mean HDL levels [3, 12]: 45.5 mg/dL
LS Mean HDL levels [3, 13]: 45.5 mg/dL
LS Mean HDL levels [3, 14]: 56.8 mg/dL
LS Mean HDL levels [3, 15]: 50.4 mg/dL
Compound: COc1c(C)c2c(c(O)c1C/C=C(\C)CCC(=O)OCCN1CCOCC1)C(=O)OC2 [MMF, mycophenolate mofetil]
